In patent EP0545912B1, “1-Biphenylmethylimidazole derivatives, their preparation and their therapeutic use” (Sankyo Company Limited, priority 1991, dated 1992) one finds ID50 data, which are given here for 16 compounds.

This assay deals with All receptor (pressor response to angiotensin II). In words: Evaluation of AII receptor blocking activity by inhibition of pressor response to angiotensin II. Format: in vivo. The note with it: dose inhibiting pressor response to intravenous angiotensin II (50 ng/kg) by fifty percent; anesthetized male Wister-Imamichi rats; test compound i.v., angiotensin II injected two minutes later; 2 min. How it is done: Evaluation of All receptor blocking activity by Inhibition of pressor response to angiotensin II
The biological activity of each compound was assessed by determining the dose required to inhibit the pressor response to intravenous angiotensin II by fifty percent (ID50) in rats. Male Wister-Imamichi rats, each weighing 300 to 400 g, were anesthesized by intraperitoneal injection of 100 mg/Kg of sodium thiobutabarbital [Inactin (trade name)] and two cannulae were inserted: one into the femoral artery for measuring blood pressure and the other into the femoral vein for injecting drugs. Fifty ng/kg of angiotension II were intravenously administered at intervals of about 10 minutes, and the elevation of blood pressure (normally about 50 mmHg) was observed. After constant pressor responses to angiotensin II were obtained, a test compound was intravenously administered. Two minutes later, angiotension II was again injected, and the inhibitory effect of the test compound was estimated. The percent inhibitions of the pressor response to angiotensin II by progressive increase of the test compound was used to calculate the value of ID50. Angiotensin II was used in this test dissolved in 0.5 % bovine serum albumin (BSA) and the test compounds were dissolved in 100% dimethyl sulphoxide (DMSO).
In addition to the compounds of the invention (which are identified hereafter by the number of the one of the following Examples which illustrates their preparation), we also carried out the same experiment using a prior art compound (identified in the Table as "compound A"), which is 2-[4-(2-butyl-5-chloro-4-chloromethylimidazoll-ylmethyl)phenyl]benzoic acid, which is disclosed in Example 118 of European Patent Publication No. 253 310.

As to `CCCCc1nc(CO)c(C(=O)O)n1Cc1ccc(-c2ccccc2C(=O)O)cc1` [Example 5, 2-Butyl-1-[(2'-carboxybiphenyl-4-yl)methyl]-4-hydroxymethylimidazole-5-carboxylic acid], the ID50 is reported as 0.22 mg/kg, i.v.
In the case of `CCCCc1nc(C(C)O)c(C(=O)O)n1Cc1ccc(-c2ccccc2C(=O)O)cc1` (stereo not shown) [Example 11, 2-Butyl-1-[(2'-carboxybiphenyl-4-yl)methyl]-4-(1-hydroxyethyl) imidazole-5-carboxylic acid], the ID50 is on record as 0.25 mg/kg, i.v.
To `CCCc1nc(CO)c(C(=O)O)n1Cc1ccc(-c2ccccc2-c2nnn[nH]2)cc1` [Example 36, 4-Hydroxymethyl-2-propyl-1-{4-[2-(tetrazol-5-yl)phenyl]phenyl}methylimidazole-5-carboxylic acid] belongs 0.0062 mg/kg, i.v; to `CCCCc1nc(CO)c(C(=O)O)n1Cc1ccc(-c2ccccc2-c2nnn[nH]2)cc1` [Example 39, 2-Butyl-4-hydroxymethyl-1-{4-[2-(tetrazol-5-yl)-phenyl]phenyl}methylimidazole-5-carboxylic acid], 0.010 mg/kg, i.v.
To `CCCc1nc(C(C)O)c(C(=O)O)n1Cc1ccc(-c2ccccc2-c2nnn[nH]2)cc1` (stereo not shown) [Example 41, 4-(1-Hydroxyethyl)-2-propyl-1-{4-[2-(tetrazol-5-yl)phenyl]phenyl}methylimidazole-5-carboxylic acid] belongs 0.0063 mg/kg, i.v.
To `CCCCc1nc(C(C)O)c(C(=O)O)n1Cc1ccc(-c2ccccc2-c2nnn[nH]2)cc1` (stereo not shown) [Example 44, 2-Butyl-4-(1-hydroxyethyl)-1-{4-[2-(tetrazol-5-yl)phenyl]phenyl}methylimidazole-5-carboxylic acid] belongs 0.0082 mg/kg, i.v; to `CCCCc1nc(C(C)O)c(C(N)=O)n1Cc1ccc(-c2ccccc2C(=O)O)cc1` (stereo not shown) [Example 45, 2-Butyl-1-[(2'-carboxybiphenyl-4-yl)methyl]-4-(1-hydroxyethyl) imidazol-5-carboxamide], 0.19 mg/kg, i.v; to `CCCCc1nc(C(O)CC)c(C(N)=O)n1Cc1ccc(-c2ccccc2C(=O)O)cc1` (stereo not shown) [Example 46, 2 -Butyl-1-[(2'-carboxybiphenyl-4-yl)methyl]-4-(1-hydroxypropyl)imidazole-5-carboxamide], 0.18 mg/kg, i.v.
As to `CCCCc1nc(C(O)C(C)C)c(C(N)=O)n1Cc1ccc(-c2ccccc2C(=O)O)cc1` (stereo not shown) [Example 48, 2-Butyl-1-[(2'-carboxybiphenyl-4-yl)methyl]-4-(1-hydroxy-2-methylpropyl)imidazole-5-carboxamide], the ID50 is 0.064 mg/kg, i.v.
The figure for `CCCCc1nc(CO)c(C(=O)NCC(=O)O)n1Cc1ccc(-c2ccccc2C(=O)O)cc1` [Example 55, N-Carboxymethyl-2-butyl-1-[(2'-carboxybiphenyl-4-yl)-methyl]-4-hydroxymethylimidazole-5-carboxamide] is 0.23 mg/kg, i.v; for `CCCCc1nc(C(O)C(C)(C)C)c(C(N)=O)n1Cc1ccc(-c2ccccc2C(=O)O)cc1` (stereo not shown) [Example 59, 2-Butyl-1-[(2'-carboxybiphenyl-4-yl)methyl]-4-(1-hydroxy-2,2-dimethylpropyl)imidazole-5-carboxamide] it is 0.066 mg/kg, i.v; for `CCCc1nc(C(O)C(C)(C)C)c(C(N)=O)n1Cc1ccc(-c2ccccc2C(=O)O)cc1` (stereo not shown) [Example 60, 1-[(2'-Carboxybiphenyl-4-yl)methyl]-4-(1-hydroxy-2,2-dimethylpropyl)-2-propylimidazole-5-carboxamide] it is 0.134 mg/kg, i.v.
On to `CCCc1nc(C(O)C(C)(C)C)c(C(N)=O)n1Cc1ccc(-c2ccccc2-c2nnn[nH]2)cc1` (stereo not shown) [Example 74, 4-(1-Hydroxy-2,2-dimethylpropyl)-2-propyl-1-{4-[2-(tetrazol-5-yl)phenyl]phenyl}methylimidazole-5-carboxamide], for which the ID50 is on record as 0.036 mg/kg, i.v.
The figure for `CCCCc1nc(C(O)C(C)(C)C)c(C(N)=O)n1Cc1ccc(-c2ccccc2-c2nnn[nH]2)cc1` (stereo not shown) [Example 75, 2-Butyl-4-(1-hydroxy-2,2-dimethylpropyl)-1-{4-[2-(tetrazol-5-yl)phenyl]phenyl}methylimidazole-5-carboxamide] is 0.11 mg/kg, i.v.
For the compound `CCCc1nc(C(O)C(C)C)c(C(N)=O)n1Cc1ccc(-c2ccccc2-c2nnn[nH]2)cc1` (stereo not shown) [Example 76, 4-(1-Hydroxy-2-methylpropyl)-2-propyl-1-{4-[2-(tetrazol-5-yl)phenyl]phenyl}methylimidazole-5-carboxamide], the ID50 is reported as 0.022 mg/kg, i.v.
To `CCCCc1nc(CCl)c(Cl)n1Cc1ccc(-c2ccccc2C(=O)O)cc1` [compound A, 2-[4-(2-butyl-5-chloro-4-chloromethylimidazoll-ylmethyl)phenyl]benzoic acid, reference compound] belongs 3.3 mg/kg, i.v.
